In ChEMBL document CHEMBL4229516, “Design, synthesis and biological evaluation of a series of novel GPR40 agonists containing nitrogen heterocyclic rings” (Bioorg Med Chem Lett, 2018):

Legend:
[1] = molecular target: T1, Free fatty acid receptor 1 (Homo sapiens, UniProt O14842); test: Transactivation of human GPR40 expressed in HEK293 cells at 10 uM after 24 hrs by Elk-Gal4 luciferase reporter assay relative to TAK-875; format: functional, cell-based
[2] = molecular target: T1, Free fatty acid receptor 1; test: Transactivation of human GPR40 expressed in HEK293 cells after 24 hrs by Elk-Gal4 luciferase reporter assay; format: functional, cell-based
CYP3A4 = CYP3A4 (Homo sapiens, UniProt P08684); test: Inhibition of CYP3A4 in human liver microsomes at 5 uM using midazolam as substrate by LC-MS/MS analysis relative to control; format: ADME; conditions: probe midazolam
Chain of CYP3A4 (P08684 whole entry): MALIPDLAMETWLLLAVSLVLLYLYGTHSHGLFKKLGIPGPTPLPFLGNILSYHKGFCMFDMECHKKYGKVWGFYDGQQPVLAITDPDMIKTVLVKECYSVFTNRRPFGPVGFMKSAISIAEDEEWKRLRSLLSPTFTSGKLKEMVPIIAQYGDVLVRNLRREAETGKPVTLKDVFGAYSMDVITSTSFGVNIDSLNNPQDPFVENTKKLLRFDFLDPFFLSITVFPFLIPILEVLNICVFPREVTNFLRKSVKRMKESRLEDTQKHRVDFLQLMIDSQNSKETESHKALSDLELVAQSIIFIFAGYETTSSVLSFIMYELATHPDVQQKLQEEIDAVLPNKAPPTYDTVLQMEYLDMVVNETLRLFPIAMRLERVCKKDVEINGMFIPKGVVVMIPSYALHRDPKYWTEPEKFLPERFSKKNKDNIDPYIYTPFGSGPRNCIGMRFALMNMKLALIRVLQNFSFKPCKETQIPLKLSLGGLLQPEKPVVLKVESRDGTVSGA

Mus musculus [3] = test: Antidiabetic activity in ICR mouse assessed as blood glucose levels at 50 mg/kg, po administered 1 hr prior to glucose challenge measured at 60 mins post glucose challenge (reference value: 175.8 +/- 25 mg/dl); format: functional
[4] = Induction of 16.8 mM glucose-stimulated insulin secretion in ICR mouse primary pancreatic islets assessed per protein at 10 uM after 1 hr by ELISA (reference value: 1.8 +/- 0.6 ng/ml); format: functional, Pancreatic islet
Mus musculus [5] = test: Antidiabetic activity in ICR mouse assessed as blood glucose levels at 50 mg/kg, po administered 1 hr prior to glucose challenge measured at 120 mins post glucose challenge (reference value: 53.7 +/- 9.9 mg/dl); format: functional
CYP2D6 [6] = molecular target: T2, CYP2D6 (Homo sapiens, UniProt P10635); test: Inhibition of CYP2D6 in human liver microsomes at 5 uM using dextromethorphan as substrate by LC-MS/MS analysis relative to control; format: ADME; conditions: probe dextromethorphan
T2 sequence (P10635 whole entry): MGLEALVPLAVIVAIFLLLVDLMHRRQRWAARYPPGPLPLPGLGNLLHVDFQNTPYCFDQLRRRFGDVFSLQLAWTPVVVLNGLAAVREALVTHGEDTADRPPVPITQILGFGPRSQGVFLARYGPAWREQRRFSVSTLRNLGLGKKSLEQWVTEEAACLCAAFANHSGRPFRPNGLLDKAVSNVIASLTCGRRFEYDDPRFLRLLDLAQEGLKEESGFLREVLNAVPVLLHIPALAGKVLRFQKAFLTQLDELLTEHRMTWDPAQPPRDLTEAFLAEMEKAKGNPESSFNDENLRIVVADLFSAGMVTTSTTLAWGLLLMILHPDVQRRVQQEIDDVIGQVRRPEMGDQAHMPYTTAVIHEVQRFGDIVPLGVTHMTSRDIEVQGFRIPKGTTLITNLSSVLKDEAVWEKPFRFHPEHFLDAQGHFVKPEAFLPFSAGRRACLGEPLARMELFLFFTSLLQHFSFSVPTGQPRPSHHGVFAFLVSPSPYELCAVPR

CYP2C9 = CYP2C9 (Homo sapiens, UniProt P11712); test: Inhibition of CYP2C9 in human liver microsomes at 5 uM using diclofenac sodium as substrate by LC-MS/MS analysis relative to control; format: ADME; conditions: probe diclofenac sodium
Chain of CYP2C9 (P11712 whole entry): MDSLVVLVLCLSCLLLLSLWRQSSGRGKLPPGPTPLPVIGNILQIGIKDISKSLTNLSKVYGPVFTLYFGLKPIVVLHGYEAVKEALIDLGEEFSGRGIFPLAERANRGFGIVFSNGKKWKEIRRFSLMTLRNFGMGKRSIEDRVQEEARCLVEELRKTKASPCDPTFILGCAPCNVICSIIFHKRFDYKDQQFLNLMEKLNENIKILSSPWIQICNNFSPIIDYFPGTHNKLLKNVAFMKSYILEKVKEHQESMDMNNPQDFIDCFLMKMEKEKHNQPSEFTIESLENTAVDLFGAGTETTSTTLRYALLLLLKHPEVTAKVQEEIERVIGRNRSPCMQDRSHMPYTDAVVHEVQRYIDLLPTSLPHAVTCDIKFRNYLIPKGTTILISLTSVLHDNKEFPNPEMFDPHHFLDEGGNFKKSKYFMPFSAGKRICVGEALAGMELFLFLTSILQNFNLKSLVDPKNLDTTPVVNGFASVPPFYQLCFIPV

Mus musculus [7] = test: Antidiabetic activity in ICR mouse assessed as blood glucose levels at 50 mg/kg, po administered 1 hr prior to glucose challenge measured at 30 mins post glucose challenge (reference value: 227.6 +/- 18.7 mg/dl); format: functional
Mus musculus [8] = test: Antidiabetic activity in ICR mouse assessed as blood glucose AUC at 50 mg/kg, po administered 1 hr prior to glucose challenge measured after 120 mins post glucose challenge (reference value: 290 +/ 23.5 mg.hr/dl); format: functional, organism-based; set-up: dose 50 mg/kg, time < 2 hr
CYP1A2 [9] = molecular target: T3, CYP1A2 (Homo sapiens, UniProt P05177); test: Inhibition of CYP1A2 in human liver microsomes at 5 uM using phenacetin as substrate by LC-MS/MS analysis relative to control; format: ADME; conditions: probe phenacetin
T3 sequence (P05177 whole entry): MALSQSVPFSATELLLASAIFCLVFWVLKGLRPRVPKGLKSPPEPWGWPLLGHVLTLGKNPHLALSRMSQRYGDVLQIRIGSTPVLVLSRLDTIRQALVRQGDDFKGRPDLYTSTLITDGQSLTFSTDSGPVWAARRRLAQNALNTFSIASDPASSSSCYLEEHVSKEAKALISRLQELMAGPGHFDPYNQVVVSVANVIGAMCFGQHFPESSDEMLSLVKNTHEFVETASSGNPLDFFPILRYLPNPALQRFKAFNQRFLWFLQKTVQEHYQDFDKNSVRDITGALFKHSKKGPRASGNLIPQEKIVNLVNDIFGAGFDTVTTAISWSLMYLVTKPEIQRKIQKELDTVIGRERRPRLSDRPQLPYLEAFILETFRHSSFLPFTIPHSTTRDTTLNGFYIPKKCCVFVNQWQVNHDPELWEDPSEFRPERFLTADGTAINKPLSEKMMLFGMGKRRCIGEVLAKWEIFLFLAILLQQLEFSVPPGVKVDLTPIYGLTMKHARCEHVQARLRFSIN

CYP2D6 [10] = molecular target: T2, CYP2D6; test: Inhibition of CYP2D6 in human liver microsomes at 2 uM using dextromethorphan as substrate by LC-MS/MS analysis relative to control; conditions: probe dextromethorphan
Mus musculus [11] = test: Antidiabetic activity in ICR mouse assessed as reduction of blood glucose AUC at 50 mg/kg, po administered 1 hr prior to glucose challenge measured after 120 mins post glucose challenge relative to control; format: functional; set-up: scale not given: the % may be the effect or the level left
CYP1A2 [12] = molecular target: T3, CYP1A2; test: Inhibition of CYP1A2 in human liver microsomes at 10 uM using phenacetin as substrate by LC-MS/MS analysis relative to control; format: ADME; conditions: probe phenacetin

T1 sequence (O14842 whole entry, the tested form may be a part): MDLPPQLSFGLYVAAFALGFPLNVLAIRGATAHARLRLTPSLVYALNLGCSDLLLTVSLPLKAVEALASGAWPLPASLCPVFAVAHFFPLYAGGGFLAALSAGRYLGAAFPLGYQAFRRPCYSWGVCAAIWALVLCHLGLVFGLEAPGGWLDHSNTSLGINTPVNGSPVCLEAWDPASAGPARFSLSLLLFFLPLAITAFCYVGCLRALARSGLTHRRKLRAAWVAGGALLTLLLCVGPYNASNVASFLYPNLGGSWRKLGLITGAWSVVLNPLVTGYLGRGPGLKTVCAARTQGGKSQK

In the case of `O=C(O)C[C@@H]1COc2cc(OCc3cccc(-c4ccc5c(c4)CN(CCc4ccccc4)C5)c3)ccc21`, the Activity [1] is reported as 77%.

For `CC(C)(CC(=O)O)c1ccc(OCc2cccc(-c3ccc4c(c3)CN(Cc3ccccc3)C4)c2)cc1`, the Activity [1] was 23.8%.

Work on `O=C(O)C[C@@H]1COc2cc(OCc3cccc(-c4cccc5c4CCN(Cc4ccccc4)C5)c3)ccc21` yielded an EC50 [2] of 5.4 µM and an Activity [1] of 89.4%.

Molecule `Cc1cc(OCCCS(C)(=O)=O)cc(C)c1-c1cccc(COc2ccc3c(c2)OC[C@H]3CC(=O)O)c1` has an inhibition at 5 µM (CYP3A4) of 34%, an Activity (Mus musculus [3]) of 120 mg/dL and an Activity [4] of 2.1 ng/mL. It also gave an Activity (Mus musculus [5]) of 49 mg/dL, an inhibition at 5 µM (CYP2D6 [6]) of 23.2% and an inhibition at 5 µM (CYP2C9) of 21%. The Activity (Mus musculus [7]) was 155.2 mg/dL, the AUC (Mus musculus [8]) was 2.07e+06 ng·h/mL and the inhibition at 5 µM (CYP1A2 [9]) was 28%.

`O=C(O)C[C@@H]1COc2cc(OCc3cccc(-c4cccc5c4CCN(CCc4ccccc4)C5)c3)ccc21` gave an Activity [1] of 54.8%.

`C=C[C@H]1C[N@@]2CC[C@H]1C[C@@H]2[C@@H](O)c1ccnc2ccc(OC)cc12` [QUINIDINE] showed an inhibition at 2 µM (CYP2D6 [10]) of 93.3%.

`CC(=O)N1Cc2ccc(-c3cccc(COc4ccc5c(c4)OC[C@H]5CC(=O)O)c3)cc2C1` gave an Activity [1] of 36.8%.

In the case of `CC(=O)N1CCc2cc(-c3cccc(COc4ccc5c(c4)OC[C@H]5CC(=O)O)c3)ccc2C1`, the Activity [1] is reported as 5%.

Molecule `CC(C)(CC(=O)O)c1ccc(OCc2cccc(-c3cccc4c3CCN(Cc3ccccc3)C4)c2)cc1` has an EC50 [2] of 0.8 µM and an Activity [1] of 90%.

Molecule `Cl.O=C(O)C[C@@H]1COc2cc(OCc3cccc(-c4ccc5c(c4)CN(Cc4ccccc4)CC5)c3)ccc21` has an inhibition at 5 µM (CYP3A4) of 27.6%, an Activity (Mus musculus [3]) of 172.7 mg/dL and an Activity [4] of 2.8 ng/mL. It also gave an Activity (Mus musculus [5]) of 58 mg/dL, an EC50 [2] of 0.8 µM and an inhibition at 5 µM (CYP2D6 [6]) of 39.5%. It also gave an Activity [1] of 108%, an inhibition at 5 µM (CYP2C9) of 3.94% and an Activity (Mus musculus [7]) of 214.1 mg/dL. For the same molecule, the AUC (Mus musculus [8]) was 2.81e+06 ng·h/mL and the inhibition at 5 µM (CYP1A2 [9]) was 25.7%.

`CC(C)(CC(=O)O)c1ccc(OCc2cccc(-c3ccc4c(c3)CN(Cc3ccccc3)CC4)c2)cc1` showed an Activity [1] of 22.8%.

`O=C(O)C[C@@H]1COc2cc(OCc3cccc(-c4ccc5c(c4)CN(C(=O)Cc4ccccc4)C5)c3)ccc21` showed an Activity [1] of 34.8%.

Molecule `O=C(O)C[C@@H]1COc2cc(OCc3cccc(-c4ccc5c(c4)CN(C(=O)Cc4ccccc4)CC5)c3)ccc21` has an Activity [1] of 20.4%.

In the case of `O=C(O)COc1ccc(OCc2cccc(-c3cccc4c3CCN(Cc3ccccc3)C4)c2)cc1`, the Activity [1] is reported as 28.8%.

With `CCN1CCc2c(cccc2-c2cccc(COc3ccc4c(c3)OC[C@H]4CC(=O)O)c2)C1` the Activity [1] was 7.8%.

Work on `O=C(O)COc1ccc(OCc2cccc(-c3ccc4c(c3)CN(Cc3ccccc3)CC4)c2)cc1` yielded an Activity [1] of 4.6%.

Work on `O=C(O)C[C@@H]1COc2cc(OCc3cccc(-c4ccc5c(c4)CN(C(=O)c4ccccc4)C5)c3)ccc21` yielded an Activity [1] of 60.8%.

With `O=C(O)C[C@@H]1COc2cc(OCc3cccc(-c4ccc5c(c4)CN(Cc4ccccc4)C5)c3)ccc21` the EC50 [2] was 3 µM and the Activity [1] was 89.8%.

In the case of `O=C(O)C[C@@H]1COc2cc(OCc3cccc(-c4ccc5c(c4)CN(C(=O)c4ccccc4)CC5)c3)ccc21`, the Activity [2] is reported as 46%.

For `O=C(O)COc1ccc(OCc2cccc(-c3ccc4c(c3)CN(Cc3ccccc3)C4)c2)cc1`, the Activity [1] was 18.9%.

Work on `O=C(O)COc1ccc(OCc2cccc(-c3ccc4c(c3)CCN(Cc3ccccc3)C4)c2)cc1` yielded an Activity [1] of 17.8%.

Work on `CC(=O)N1CCc2c(cccc2-c2cccc(COc3ccc4c(c3)OC[C@H]4CC(=O)O)c2)C1` yielded an Activity [1] of 43.6%.

In the case of `O=C(O)C[C@@H]1COc2cc(OCc3cccc(-c4ccc5c(c4)CCN(CCc4ccccc4)C5)c3)ccc21`, the EC50 [2] is reported as 4 µM and the Activity [1] is reported as 85%.

In the case of `Cl.O=C(O)C[C@@H]1COc2cc(OCc3cccc(-c4ccc5c(c4)CCN(Cc4ccccc4)C5)c3)ccc21`, the inhibition at 5 µM (CYP3A4) is reported as 30.7%, the Activity (Mus musculus [3]) is reported as 150.2 mg/dL and the Activity [4] is reported as 2.9 ng/mL. It also gave an Activity (Mus musculus [5]) of 49.9 mg/dL, an EC50 [2] of 1.2 µM and an inhibition at 5 µM (CYP2D6 [6]) of 23.6%. For the same molecule, the Activity (Mus musculus [11]) was 13.8%, the Activity [1] was 136% and the inhibition at 5 µM (CYP2C9) was 16.2%. For the same molecule, the Activity (Mus musculus [7]) was 196.2 mg/dL and the inhibition at 5 µM (CYP1A2 [9]) was 20.9%.

In the case of `O=C(O)C[C@@H]1COc2cc(OCc3cccc(-c4ccc5c(c4)CCN(C(=O)c4ccccc4)C5)c3)ccc21`, the Activity [1] is reported as 39.8%.

In the case of `CC(C)(CC(=O)O)c1ccc(OCc2cccc(-c3ccc4c(c3)CCN(Cc3ccccc3)C4)c2)cc1`, the Activity [1] is reported as 58.6%.

For `Cc1nc2c([nH]1)c(=O)n(C)c(=O)n2Cc1ccco1` [FURAFYLLINE], the inhibition at 10 µM (CYP1A2 [12]) was 71.4%.

`Nc1ccc(S(=O)(=O)Nc2ccnn2-c2ccccc2)cc1` [SULFAPHENAZOLE] gave an inhibition at 5 µM (CYP2C9) of 94.9%.

In the case of `O=C(O)C[C@@H]1COc2cc(OCc3cccc(-c4ccc5c(c4)CCN(C(=O)Cc4ccccc4)C5)c3)ccc21`, the Activity [1] is reported as 31.6%.

In the case of `O=C(O)C[C@@H]1COc2cc(OCc3cccc(-c4cccc5c4CCN(C(=O)c4ccccc4)C5)c3)ccc21`, the EC50 [2] is reported as 2.2 µM and the Activity [1] is reported as 84.2%.
